Laboratory results as given in patent publication US9861616B2, “Methods for treating respiratory diseases and formulations therefor” (priority 2013, dated 2018).

What was measured:
[1] = test system: B. cepacia strains from cystic fibrosis patients; test: Macrobroth dilution MICs, CF strains; format: cell-based; settings: 2 B. cepacia strains from cystic fibrosis patients
Procedure: (§1) Two strains each of mucoid P. aeruginosa (both pyocyanin positive) and […] MRSA (only one strain with gold colonies) isolated from patients at a CF clinic were tested. Additionally, 2 B. cepacia strains were acquired, from Hershey Medical Center. All strains were identified by standard methods. Only one strain per patient was tested. MLVA was done on all strains to examine clonality, and confirmed that examination is not taking place on only one or a few clones. Strains will be stored in skim milk at −70° C. until use.
(§2) Original MICs of each strain to CEM-101 and other comparators were tested by CLSI microdilution methodology. Trays were obtained from Trek, Inc., Cleveland, Ohio. Time-kill macrobroth MIC dilution by CLSI was performed for all synergy testing.

[2] = test system: P. aeruginosa strains from cystic fibrosis patients; test: Macrobroth dilution MICs, CF strains; format: cell-based; settings: 2 P. aeruginosa strains from cystic fibrosis patients
Procedure: as §1, §2

MRSA SA 2230, SA 2232 = test: Time-kill macrobroth MICs; format: cell-based, S. aureus
Procedure: as §2
(§3) Two of the MRSA strains were chosen and tested for synergy, together with the 4 Gram-negative strains mentioned above. Broth macrodilution formed the basis of MICs used in time-kill experiments, as detailed below. The kill kinetics of each drug was tested alone by incubating an initial inoculum of 5×10^5 to 5×10^6 cfu/mL with drug concentrations at the MIC, three dilutions above and three dilutions below the MIC (½, ¼ and ⅛×MIC). Viability counts were performed after 0, 3, 6, 12 and 24 h incubation at 37° C. in a shaking water bath by plating onto trypticase soy-5% sheep blood agar plates.

[3] = test system: B. cepacia BCEP 953, BCEP 954; test: Time-kill macrobroth MICs; format: cell-based
Procedure: as §2, §3

[4] = test system: P. aeruginosa PSAR 461, PSAR 468; test: Time-kill macrobroth MICs; format: cell-based
Procedure: as §2, §3

[5] = Tissue levels in repeat-dose toxicology studies; format: in vivo, rodents and non human primates; settings: repeated dosing
[6] = Rodent ADME studies using radiolabeled CEM-101; format: in vivo; settings: IV 20 mg/kg
Procedure: This relationship was confirmed in rodent ADME studies using radiolabeled CEM-101. […] After IV dosing at 20 mg/kg, the data was more variable and lung/plasma ratios of 17.6 for males and 6.2 for females were observed.

Tissue distribution [7] = format: in vivo; settings: rat
Procedure: CEM-101 is well absorbed and distributed to the tissue. In the rat at 250 mg/kg/d, mean lung and liver concentrations 5 of CEM-101 were 17 and 15-fold higher than in plasma.

Tissue distribution [8] = format: in vivo, monkey
[9] = Intrapulmonary penetration into ELF and AM, Phase 1 clinical study; format: in vivo, healthy adult subjects; settings: 400 mg orally daily for 5 days, Day 5, 24 hour period
Procedure: CEM-101 is evaluated for the treatment of patients with community-acquired bacterial pneumonia. The penetration of CEM-101 into the epithelial lining fluid (ELF) and alveolar macrophages (AM) is assessed in a Phase 1 clinical study.
30 subjects received 400 mg of CEM-101 orally daily for 5 days. On Day 5, each subject underwent a single bronchoscopy and bronchoalveolar lavage at 1 of 5 time points (3, 6, 9, 12 or 24 h post-dose) to obtain ELF and AM samples (6 subjects/time point). Plasma samples were collected pre-dose on Days 1 to 5 and serially post-dose on Day 5 and 6. The samples collected were assayed for CEM-101 using LC/MS/MS. Urea in the plasma and ELF was used to correct the ELF CEM-101 concentrations. Noncompartmental pharmacokinetic (PK) analysis using the median concentrations at each time point was used to calculate Day 5 AUC0-24. In addition, a population PK model (PPM) was used to determine Day 5 AUC0-24 for each subject in plasma and ELF. Intrapulmonary penetration of CEM-101 into the ELF and AM was determined by dividing the Day 5 AUC0-24 of each matrix by the Day 5 plasma AUC0-24.

[10] = Plasma and ELF pharmacokinetics in healthy mice; format: in vivo
Procedure: (§4) CEM-101 PK data were obtained from healthy mice administered single CEM-101 doses ranging from 0.625 to 40 mg/kg. Plasma and ELF were collected over 24 h (3 mice/time point) and assayed for CEM-101. Urea in plasma and ELF was used to correct ELF concentrations. Neutropenic mice infected with 10^8 CFU of 1 of 5 S. pneumoniae isolates via inhalation were administered daily CEM-101 doses (0.156 to 160 mg/kg) via oral gavage. Dose-fractionation was performed for 1 isolate; CEM-101 was administered to the other 4 isolates as a Q6h or Q12h regimen. PK and PK-PD were evaluated using S-ADAPT 1.56.
A 3-compartment model with a parallel first-order and capacity-limited clearance and a capacity-limited first pass effect with fitted lag-times best described the plasma and ELF data (r2=0.98 and 0.83 for observed vs fitted concentrations, respectively). ELF to total- and free-drug (f) plasma (based on protein binding of 91.8% in mice) AUC0-24 ratios were 0.22 and 2.7, respectively. ELF and f plasma AUC0-24:MIC ratios were most predictive of efficacy (r2=0.85 for ELF and f plasma). […] AUC0-24:MIC ratio was the PK-PD index most predictive of efficacy for CEM-101. PK-PD targets based on these relationships will inform dose selection for future clinical studies.

S. pneumoniae = test: PK-PD analysis in neutropenic murine-lung infection model; format: in vivo; settings: neutropenic mice
Procedure: Using a murine-lung infection model, epithelial lining fluid (ELF) and plasma PK-PD measures most closely associated with CEM-101 efficacy against S. pneumoniae and targets based on PK-PD relationships for such indices were identified.
as §4

For `CC[C@H]1OC(=O)[C@@](C)(F)C(=O)[C@H](C)[C@@H](O[C@@H]2O[C@H](C)C[C@H](N(C)C)[C@H]2O)[C@](C)(OC)C[C@@H](C)C(=O)[C@H](C)[C@H]2N(CCCCn3cc(-c4cccc(N)c4)nn3)C(=O)O[C@]12C` [CEM-101, solithromycin], the “MIC Range” value [1] was 8 to 32 µg/mL, the “MIC Range” value [2] was 64 µg/mL and the “Time-kill Macrobroth MIC” value (MRSA SA 2230, SA 2232; strain SA 2230) was 0.125 µg/mL. For the same compound, the “Time-kill Macrobroth MIC” value (MRSA SA 2230, SA 2232; strain SA 2232) was 0.125 µg/mL, the “Time-kill Macrobroth MIC” value ([3]; strain BCEP 953) was 8.0 µg/mL and the “Time-kill Macrobroth MIC” value ([3]; strain BCEP 954) was 32.0 µg/mL. The “Time-kill Macrobroth MIC” value ([4]; strain PSAR 461) was 64.0 µg/mL, the “Time-kill Macrobroth MIC” value ([4]; strain PSAR 468) was 32.0 µg/mL and the “tissues with highest concentrations” value [5] was “highest in liver, spleen, lung, and salivary gland”. For the same compound, the lung/plasma ratio ([6]; females) was 6.2, the lung/plasma ratio ([6]; males) was 17.6 and the “heart concentration relative to plasma” value (Tissue distribution [7]) was 5 fold. For the same compound, the “mean liver concentration relative to plasma” value (Tissue distribution [7]; 250 mg/kg/d) was 15 fold, the “mean lung concentration relative to plasma” value (Tissue distribution [7]; 250 mg/kg/d) was 17 fold and the “heart concentration relative to plasma” value (Tissue distribution [8]; monkey) was 54 fold. For the same compound, the “liver concentration relative to plasma” value (Tissue distribution [8]; monkeys, 200 mg/kg/d) was 711 fold, the “lung concentration relative to plasma” value (Tissue distribution [8]; monkeys, 200 mg/kg/d) was 503 fold and the “exposure in AM compared to plasma” value [9] was over 180 times. For the same compound, the “exposure in ELF compared to plasma” value [9] was over 8 times, the “ELF to total-drug plasma AUC0-24 ratio” value [10] was 0.22 and the “ELF to free-drug (f) plasma AUC0-24 ratio” value ([10]; based on protein binding of 91.8%) was 2.7. For the same compound, the “ELF AUC0-24:MIC ratio associated with 1-log 10 CFU reduction from baseline” value (S. pneumoniae) was 15.1, the “ELF AUC0-24:MIC ratio associated with 2-log 10 CFU reduction from baseline” value (S. pneumoniae) was 59.8 and the “ELF AUC0-24:MIC ratio associated with net bacterial stasis” value (S. pneumoniae) was 1.26. The “f plasma AUC0-24:MIC ratio associated with 1-log 10 CFU reduction from baseline” value (S. pneumoniae) was 6.31, the “f plasma AUC0-24:MIC ratio associated with 2-log 10 CFU reduction from baseline” value (S. pneumoniae) was 12.8 and the “f plasma AUC0-24:MIC ratio associated with net bacterial stasis” value (S. pneumoniae) was 1.65.
